Assays:
GSC11 GICs = assay: GSC11 orthotopic intracranial xenograft efficacy; type: in vivo, nude mice; conditions: GSC11 tumor-bearing mice, 6 mg/kg oral; control 47 days; P=0.014
From the text: Figure 4 DS7423 suppressed tumor growth and prolonged survival in an orthotopic mouse xenograft model U87 glioma cells U87 and GSC11 GICs were used to generate orthotopic xenografts in mouse brains. Tumor-bearing mice received either vehicle or DS7423 at the indicated dose/schedules. Two mice were killed at the indicated time points (2 weeks and 4 weeks) after DS treatment. A. and B. Kaplan–Meier survival plots of tumor-bearing mice in vehicle or DS7423 treatment groups (n = 10). The log-rank method was used to test for a difference between groups. […] Bar, 100 μm.
6 to 8-week-old male nude mice were obtained from the MD Anderson breeding facility and used in accordance with the Animal Care and Use Guidelines of MD Anderson Cancer Center. In this study, 5 × 10^5 U87 (PTEN mutant) cells in DMEM/F12 serum-free media (5 μL) and GSC11 (PIK3CA mutant and PTEN mutant) were implanted intracranially into each mouse using a guide-screw system, as described previously. Four days after injection of the tumor cells, mice were randomized into 2 groups (10 animals per group). Mice in-group 1 was given 6 mg/kg DS7423 via oral gavage, and mice in-group 2 were given the vehicle (0.5% methyl cellulose) used for administration of DS (control). […] Mice were monitored daily and euthanized when they became moribund. […]

Akt phosphorylation = assay: Western blot of PI3K signaling proteins in glioma cells; type: cell-based, human; conditions: 200 nM DS
Description: The levels of PI3K/mTOR signaling proteins, including pAkt, pS6 and P4EBP1 decreased in a dose- and time-dependent manner in all tested glioma cells (Figure 2A and 2B) as well as in the glioma tumor-initiating cell line GSC11 (Figure 2A and 2B). DS suppression of pAkt caused subsequent effects on Akt effectors such as 4EBP1 and S6 at 200-nM concentrations, and the maximum effects on Akt phosphorylation were observed 8 hours after 200 nM DS treatment.
Figure 2 DS7423 suppresses the PI3K signaling pathway in a dose- or time-dependent manner A. and B. Western blotting was performed to analyze the cellular protein levels of PI3K signaling proteins in U87 and LN229 glioma cells and GSC11 GICs. Cells were treated with the indicated doses of DS7423 for the indicated time intervals. DS7423 inhibited phosphorylation of the PI3K signaling components pAKT, pS6, and p4EBP1 in a time-dependent manner. D. Cells treated with the indicated doses of DS7423 for 24 hours. DS7423 inhibited phosphorylation of the PI3K signaling components pAKT, pS6, and p4EBP1 in a dose-dependent manner.
Cells were incubated with DS and then harvested and extracts were prepared for immunoblotting analysis. […]

## CC(=O)N1CCN(c2nc3c(N4CCOCC4)nc(-c4cnc(N)nc4)nc3n2CC(F)(F)F)C[C@H]1C [DS, 1-{(2R)-4-[2-(2-Aminopyrimidin-5-yl)-6-(morpholin-4-yl)-9-(2,2,2-trifluoroethyl)-9H-purin-8-yl]-2-methylpiperazin-1-yl}ethan-1-one]
GSC11 GICs
  median survival: 61 days
Akt phosphorylation
  time of maximum effects on Akt phosphorylation: 8 h

Reference: PMC5400620, “Preclinical therapeutic efficacy of a novel blood-brain barrier-penetrant dual PI3K/mTOR inhibitor with preferential response in PI3K/PTEN mutant glioma” (Oncotarget, 2017)
